Test results from patent US20240067600A1, “SMALL MOLECULE INHIBITORS OF THE MITOCHONDRIAL PERMEABILITY TRANSITION PORE (mtPTP)” (UNIVERSITY OF KANSAS, priority 2014, published 2024).
Read-outs that look alike come from different tables or passages of the source.

Assays:
Type in all cases: biochemical, mice
IMM potential = assay: Rhodamine 123 (Rh123) uptake counterscreen;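 further: isolated mitochondria respiring on glutamate plus malate in sucrose MOPS-Tris buffer at pH 7.4, Rh123 added with the organelles, compounds tested across a twofold dilution series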
Experimental: Assay buffer: 250 mM sucrose, 10 mM MOPS-Tris, 0.01 mM EGTA-Tris, 1.0 mM phosphoric acid-Tris, pH 7.4 • Solution 1. 5.0 mM glutamate and 2.5 mM malate in Assay Buffer. • Solution 2. 1% DMSO in Solution 1. • Solution 3. 0.8 μM FCCP (the stock 40 μM in DMSO) in Solution 1. • Solution 4. 0.5 mg/mL mitochondria and 0.8 μM Rh123 in Assay Buffer.
Protocol Summary: • 1. Freshly isolate mitochondria, prepare solutions according to the recipes in the Reagent Section. • 2. Dispense 100 μL of Solution 3 to Columns 1-2 and Solution 2 Columns 11-12 (positive and negative controls, respectively) of the 96-well black assay plate (Falcon 353376). • 3. Dispense 200 μL of Solution 1 to Row A Columns 3-10. • 4. Next, dispense 100 μL of Solution 2 to Rows B-H Columns 3-10. • 5. Add 4 μL of 10 mM test compounds in DMSO to Row A Columns 3-10, perform 1:2 serial dilutions Row A to H Columns 3-10. • 6. Finally, dispense 100 μL of Solution 4 in all wells. The reaction starts. • 7. Keep the plate at room temperature for 5 minutes and then read fluorescence (excitation 485 nm, emission 538 nm) on Fluoroskan Ascent FL, Thermo Scientific.
Concentration-Response Counterscreen Assay to Identify Compounds that Prevent Mitochondrial Swelling Via Interference with the IMM Potential (SAR Assay AID No. 743361)
Assay buffer: 250 mM sucrose, 10 mM MOPS-Tris, 0.01 mM EGTA-Tris, 1.0 mM phosphoric acid-Tris, pH 7.4 • Solution 1. 5.0 glutamate and 2.5 mM malate in Assay Buffer. • Solution 2. 1% DMSO in Solution 1. • Solution 3. 0.8 μM FCCP (the stock 40 μM in DMSO) in Solution 1. • Solution 4. 0.5 mg/mL mitochondria and 0.8 μM Rh123 in Assay Buffer.

mtPTP = assay: Calcium retention capacity (CRC) assay on isolated mitochondria; conditions: for Calcium Retention Capacity (CRC/CRC0 at 12.5 μM): 12.5 μM compound; for Calcium Retention Capacity (CRC/CRC0) at 1.56 μM: 1.56 μM compound
Experimental: Assay buffer: 250 mM sucrose, 10 mM MOPS-Tris, 0.01 mM EGTA-Tris, 1.0 mM phosphoric acid-Tris, pH 7.4. • Solution 1. 10 mM glutamate and 5 mM malate in Assay buffer. • Solution 2. 1% DMSO in Solution 2. • Solution 3. 0.5 mg/mL mitochondria and 1.0 μM Calcium Green-5N in Assay Buffer. • Solution 4. 0.25 mM CaCl2).
Protocol Summary: • 1. Freshly isolate mitochondria, prepare solutions according to the recipes in the Reagent Section. • 2. Dispense 100 μL of Solution 2 to Columns 1-2 (negative control) of the 96-well black assay plate (Falcon 353376). • 3. Dispense 200 μL of Solution 1 to Row A Columns 3-12. • 4. Next, dispense 100 μL of Solution 2 to Rows B-H Columns 3-12. • 5. Add 4 μL of 5 mM test compounds in DMSO to Row A Columns 3-12, perform 1:2 serial dilutions Row A to H Columns 3-12. • 6. Finally, dispense 100 μL of Solution 3 in all wells. • 7. Experiment starts. Read Calcium Green-5N fluorescence (excitation 485 nm, emission 538 nm) and perform a train of 4 μL Solution 4 additions with Fluoroskan Ascent FL, Thermo Scientific.

[1] = test system: Mitochondrial Permeability Transition Pore; assay: Mitochondrial swelling absorbance assay
Experimental: Mitochondrial Swelling (Hit Validation, Confirmatory Assay, Concentration-Response, AID No. 720722)
Assay buffer: 250 mM sucrose, 10 mM MOPS-Tris, 0.01 mM EGTA-Tris, 1.0 mM phosphoric acid-Tris, pH 7.4 • Solution 1. 5.0 mM glutamate and 2.5 mM malate in Assay buffer. • Solution 2. 80-120 μM CaCl2) depending on mitochondrial activity in Solution 1. Note: Concentration of Ca^2+ in the assay is dependent upon the activity of the isolated mitochondria which is determined via a calcium titration just before each screening batch. A Ca^2+ concentration is used that allows for the arrival at a 2:1 window at the 20 minute time period. • Solution 3. 1% DMSO in Solution 2. • Solution 4. 2.0 mM EGTA-Tris, pH 7.4 in Solution 3. • Solution 5. 0.5 mg/mL mitochondria in Assay Buffer.
Protocol Summary: • 1. Freshly isolate mitochondria, prepare solutions according to the recipes in the reagent section • 2. Dispense 100 μL of Solution 4 to Columns 1-2 and Solution 3 Columns 11-12 (positive and negative controls, respectively) of the 96-well clear assay plate (Falcon 353072) • 3. Dispense 200 μL of Solution 1 to Row A Columns 3-10. • 4. Next, dispense 100 μL of Solution 3 to Rows B-H Columns 3-10. • 5. Add 4 μL of 5 mM test compounds in DMSO to Row A Columns 3-10, perform 1:2 serial dilutions Row A to H Columns 3-10. • 6. Finally, dispense 100 μL of Solution 5 in all wells. The reaction starts. • 7. Keep the plate at room temperature for 20 minutes and then read absorbance at 540 nm on MultiSkan EX, Thermo Scientific.
Concentration-Response Assay to Identify Compounds that Inhibit Mitochondrial Swelling (SAR Assay AID No. 743359)
Assay buffer: 250 mM sucrose, 10 mM MOPS-Tris, 0.01 mM EGTA-Tris, 1.0 mM phosphoric acid, pH 7.4 • Solution 1. 5.0 mM glutamate and 2.5 mM malate in Assay Buffer. • Solution 2. 100-120 μM CaCl2) depending on mitochondrial activity in Solution 1. Note: Concentration of Ca^2+ in the assay is dependent upon the activity of the isolated mitochondria which is determined via a calcium titration just before each screening batch. A Ca^2+ concentration is used that allows for the arrival at a 2:1 window at the 20 minute time period. • Solution 3. 1% DMSO in Solution 2. • Solution 4. 2.0 mM EGTA-Tris, pH 7.4 in Solution 3. • Solution 5. 0.5 mg/mL mitochondria in Assay Buffer.
Protocol Summary: • 1. Freshly isolate mitochondria, prepare solutions according to the recipes in the Reagent Section. • 2. Dispense 100 μL of Solution 4 to Columns 1-2 and Solution 3 Columns 11-12 (positive and negative controls, respectively) of the 96-well clear assay plate (Falcon 353072). • 3. Dispense 200 μL of Solution 1 to Row A Columns 3-10. • 4. Next, dispense 100 μL of Solution 3 to Rows B-H Columns 3-10. • 5. Add 4 μL of 5 mM test compounds in DMSO to Row A Columns 3-10, perform 1:2 serial dilutions Row A to H Columns 3-10. • 6. Finally, dispense 100 μL of Solution 5 in all wells. The reaction starts. • 7. Keep the plate at room temperature for 20 minutes and then read absorbance at 540 nm on MultiSkan EX, Thermo Scientific.

[2] = Table 2, average of >3 experiments ± SEM, read-out: Rh123 Assay EC50
[3] = Table 2, average of >3 experiments ± SEM
[4] = Table 1, read-out: Rh123 uptake (EC50)
[5] = Table 1, unit inferred, average ± SEM

SMILES | EC50 [1, 3] | EC50 ([1]; Table 1, average ± SEM) | EC50 [1, 5] | EC50 (IMM potential; [2]) | Calcium Retention Capacity (CRC/CRC0 at 12.5 μM) (mtPTP; [3]) | Calcium Retention Capacity (CRC/CRC0 at 12.5 μM) (mtPTP; Table 1, average ± SEM) | EC50 (IMM potential; [4]) | Calcium Retention Capacity (CRC/CRC0) at 1.56 μM (mtPTP; Table 1, average ± SEM)
COc1ccc(-c2cc(C(=O)Nc3cc(Cl)cc(Cl)c3)no2)cc1O [drawing 192] | – | – | – | – | – | 3.52 ± 0.44 | – | –
Cc1cnc(Cl)cc1NC(=O)c1cc(-c2cccc(O)c2)on1 | – | – | 100 ± 9.6 nM | – | – | 5.51 ± 0.99 | > 100 µM | –
Cc1cc(Cl)cc(NC(=O)c2cc(-c3cccc(O)c3)on2)c1 | – | 78 ± 5 nM | – | – | – | 9.34 ± 1.04 | > 100 µM | –
Cc1ccccc1NC(=O)c1cc(-c2ccc(O)cc2)on1 | – | 2450 ± 148 nM | – | – | – | 2.94 ± 0.46 | > 100 µM | –
Cc1ccc(Cl)cc1NC(=O)c1cc(-c2cccc(O)c2)on1 | – | 3.5 ± 0.7 nM | – | – | – | 14.99 ± 1.20 | > 100 µM | 9.63 ± 0.29
CN1CCN(c2ccc(NS(=O)(=O)c3cccc(Cl)c3)cc2)CC1 | – | 37500 ± 3630 nM | – | – | – | 1.05 ± 0.03 | > 100 µM | –
COc1ccc(/C=C/C(=O)Nc2cccc(Cl)c2)cc1O [Entry 13] | 73 ± 7 nM | – | – | > 100 µM | 7.67 ± 0.35 | – | – | –
O=C(Nc1cccc(Cl)c1)c1cc(-c2cccc(O)c2)on1 [drawing 182] | – | 78.8 ± 5.8 nM | – | – | – | – | > 100 µM | 4.13 ± 0.17 (at 1.56 μM)
CN1CCN(c2ccc(NS(=O)(=O)c3cc(Cl)cc(Cl)c3)cc2)CC1 | – | 21700 ± 1080 nM | – | – | – | 1.11 ± 0.03 | > 100 µM | –
Cc1ccc(Cl)cc1NC(=O)c1cc(-c2ccc(F)c(O)c2)on1 | – | 0.134 ± 0.016 nM | – | – | – | 19.28 ± 1.59 | > 100 µM | 15.21 ± 1.26
Cc1cnc(Cl)cc1NC(=O)c1cc(-c2ccc(F)c(O)c2)on1 | – | 2190 ± 150 nM | – | – | – | 3.48 ± 0.51 | > 100 µM | –
Cc1ncc(Cl)cc1NC(=O)c1cc(-c2cccc(O)c2)on1 | – | 24 ± 2.2 nM | – | – | – | 10.09 ± 0.91 | > 100 µM | 6.62 ± 0.89
Cc1ncc(Cl)cc1NC(=O)c1cc(-c2ccc(F)c(O)c2)on1 | – | 16 ± 1.9 nM | – | – | – | 10.69 ± 1.00 | > 100 µM | 9.12 ± 0.88
O=C(Nc1cc(Cl)ccc1F)c1cc(-c2ccc(F)c(O)c2)on1 | – | 9 ± 1.4 nM | – | – | – | 10.07 ± 0.69 | > 100 µM | –
CC1(C)CCN(CCCC(=O)c2ccc(Br)cc2)CC1 | – | 18000 ± 1330 nM | – | – | – | 1.10 ± 0.05 | > 100 µM | –
Cc1c(Cl)cccc1NC(=O)c1cc(-c2ccc(F)c(O)c2)on1 [drawing 141] | – | 0.89 ± 0.141 nM | – | – | – | – | > 100 µM | 12.14 ± 0.55 (at 1.56 μM)
COc1ccc(-c2cc(C(=O)Nc3cc(Cl)ccc3OC)no2)cc1O | – | 97 ± 3.4 nM | – | – | – | 9.89 ± 1.31 | > 100 µM | 6.62 ± 0.84

SMILES | EC50 [1, 3] | EC50 ([1]; Table 1, average ± SEM) | EC50 [1, 5] | EC50 (IMM potential; [2]) | Calcium Retention Capacity (CRC/CRC0 at 12.5 μM) (mtPTP; [3]) | Calcium Retention Capacity (CRC/CRC0 at 12.5 μM) (mtPTP; Table 1, average ± SEM) | EC50 (IMM potential; [4]) | Calcium Retention Capacity (CRC/CRC0) at 1.56 μM (mtPTP; Table 1, average ± SEM)
O=C(Nc1cccc(Cl)c1)c1cc(-c2ccc(F)c(O)c2)on1 | – | 13 ± 2 nM | – | – | – | 10.17 ± 0.69 | > 100 µM | –
O=C(Nc1cc(Cl)ccc1Cl)c1cc(-c2ccc(F)c(O)c2)on1 | – | 66 ± 3.2 nM | – | – | – | 12.15 ± 1.36 | > 100 µM | 6.50 ± 0.77
O=C(Nc1cccc(Cl)c1)c1cc(-c2ccc(O)cc2)on1 | – | 2210 ± 174 nM | – | – | – | 3.50 ± 0.57 | > 100 µM | –
COc1ccc(-c2cc(C(=O)Nc3cc(Cl)ccc3C)n[nH]2)cc1O | – | 2.4 ± 0.4 nM | – | – | – | – | > 100 µM | 7.51 ± 0.47 (at 1.56 μM)
COc1ccc(/C=C/C(=O)Nc2cccc(Cl)c2)cc1O [drawing 175] | – | – | – | – | – | 14.02 ± 1.63 | – | –
N#Cc1ccc(Cl)cc1NC(=O)c1cc(-c2cccc(O)c2)on1 | – | 30 ± 2.6 nM | – | – | – | 13.99 ± 1.50 | > 100 µM | 7.69 ± 0.61
C[C@@H]1CCC[C@H](C)N1CCCC(=O)c1ccc(Br)cc1 | – | 46000 ± 1360 nM | – | – | – | 1.01 ± 0.02 | > 100 µM | –
COc1c(Cl)cccc1NC(=O)c1cc(-c2cccc(O)c2)on1 | – | 42700 ± 2590 nM | – | – | – | 1.83 ± 0.17 | > 100 µM | –
O=C(Nc1cccc(Cl)c1)c1cc(-c2cccc(O)c2)on1 [drawing 166] | – | – | – | – | – | 5.47 ± 0.57 | – | –
O=C(Nc1cc(Cl)cc(Cl)c1)c1cc(-c2cccc(O)c2)on1 | – | 190 ± 17 nM | – | – | – | 12.08 ± 1.92 | > 100 µM | 5.72 ± 0.25
CC(C)C1CCN(CCCC(=O)c2ccc(Br)cc2)CC1 | – | 10000 ± 7780 nM | – | – | – | 1.16 ± 0.05 | 64.8 ± 4.19 µM | –
COc1ccc(-c2cc(C(=O)Nc3cccc(Cl)c3C)no2)cc1O | – | 0.0283 ± 0.0048 nM | – | – | – | 13.44 ± 0.93 | > 100 µM | 9.59 ± 0.85
COc1ccc(-c2cc(C(=O)Nc3cccc(Cl)c3Cl)no2)cc1O | – | 108 ± 10 nM | – | – | – | – | > 100 µM | 5.21 ± 0.50 (at 1.56 μM)
COc1ccc(/C=C/C(=O)Nc2cccc(Cl)c2)cc1O [drawing 143] | – | 125 ± 7.1 nM | – | – | – | 11.05 ± 1.35 | > 100 µM | –
COc1ccc(Cl)cc1C(=O)Nc1ccc(CCN2CCN(C(=O)OC(C)(C)C)CC2)cc1 [drawing 174] | – | – | – | – | – | 1.90 ± 0.11 | – | –
COc1ccc(-c2cc(C(=O)Nc3cc(Cl)ncc3C)no2)cc1O [drawing 129] | – | – | 366 ± 47.5 nM | – | – | – | – | –

Further lines, with some results ahead:

EC50 [1, 3] | EC50 ([1]; Table 1, average ± SEM) | EC50 [1, 5] | SMILES | EC50 (IMM potential; [2]) | Calcium Retention Capacity (CRC/CRC0 at 12.5 μM) (mtPTP; [3]) | Calcium Retention Capacity (CRC/CRC0 at 12.5 μM) (mtPTP; Table 1, average ± SEM) | EC50 (IMM potential; [4]) | Calcium Retention Capacity (CRC/CRC0) at 1.56 μM (mtPTP; Table 1, average ± SEM)
372 ± 28 nM | – | – | O=C(Nc1ccc(CN2CCCCC2)cc1)c1ccc(F)c(OCc2ccccc2)c1 [Entry 2] | > 100 µM | 13.3 ± 1.0 | – | – | –
– | 217 ± 51.8 nM | – | COc1ccc(-c2cc(C(=O)Nc3cc(Cl)ccc3F)no2)cc1O | – | – | 5.37 ± 0.58 | > 100 µM | –
– | 9000 ± 404 nM | – | COc1ccc(Cl)cc1C(=O)Nc1ccc(CCN2CCOCC2)cc1 | – | – | 1.23 ± 0.02 | > 100 µM | –
521 ± 46 nM | – | – | O=C(Nc1ccc(CN2CCCCC2)cc1)c1cc(F)cc(OCc2ccccc2)c1 [Entry 1] | 58.6 ± 2.9 µM | 10.8 ± 0.6 | – | – | –
– | 189 ± 28 nM | – | COc1ccc(NC(=O)c2cc(-c3cccc(O)c3)on2)cc1Cl | – | – | 3.26 ± 0.32 | > 100 µM | –
– | 29100 ± 2920 nM | – | O=S(=O)(Nc1ccc(CCN2CCCCC2)cc1)c1ccc(F)c(Cl)c1 | – | – | 1.07 ± 0.03 | > 100 µM | –
4000 ± 660 nM | – | – | O=C(Nc1ccc(CN2CCCCC2)cc1)c1ccc(Cl)c(OCc2ccccc2Cl)c1 [Entry 9] | > 100 µM | 2.37 ± 0.41 | – | – | –
– | 38700 ± 3670 nM | – | O=S(=O)(Nc1ccc(CCN2CCCCC2)cc1)c1cccc(Cl)c1 | – | – | 1.12 ± 0.02 | > 100 µM | –
3600 ± 170 nM | – | – | O=C(Nc1ccc(CN2CCCCC2)cc1)c1cc(OCc2ccccc2)ccc1Cl [Entry 3] | 75.7 ± 1.8 µM | 2.26 ± 0.11 | – | – | –
– | 0.00756 ± 0.00122 nM | – | COc1ccc(-c2cc(C(=O)Nc3cc(Cl)ccc3C)no2)cc1O | – | – | 14.44 ± 0.58 | > 100 µM | 10.02 ± 0.34
– | 6870 ± 423 nM | – | COc1ccc(Cl)cc1C(=O)Nc1ccc(CN2CCNCC2)cc1 [drawing 151] | – | – | 1.24 ± 0.04 | > 100 µM | –
– | 2680 ± 166 nM | – | COc1ccc(Cl)cc1C(=O)Nc1ccc(CCN2CCCCC2)cc1 | – | – | 1.51 ± 0.01 | > 100 µM | –
– | 8120 ± 388 nM | – | COc1ccc(Cl)cc1C(=O)Nc1ccc(CN2CCOCC2)cc1 | – | – | 1.20 ± 0.00 | > 100 µM | –
– | 16000 ± 1580 nM | – | O=C(Nc1ccc(CN2CCCCC2)cc1)c1cccc(Cl)c1 | – | – | 1.16 ± 0.02 | > 100 µM | –
– | 7610 ± 839 nM | – | COc1ccc(Cl)cc1C(=O)Nc1ccc(CCN2CCN(C(=O)OC(C)(C)C)CC2)cc1 [drawing 148] | – | – | 1.37 ± 0.02 | > 100 µM | –
206 ± 21 nM | – | – | O=C(Nc1ccc(CN2CCNCC2)cc1)c1ccc(Cl)c(OCc2ccccc2)c1 [Entry 7] | 46.4 ± 3.2 µM | 18.3 ± 1.3 | – | – | –
286 ± 27 nM | – | – | O=C(Nc1cccc(CN2CCNCC2)c1)c1ccc(Cl)c(OCc2ccccc2)c1 [Entry 6] | 42.6 ± 3.1 µM | 16.1 ± 1.5 | – | – | –
– | 9240 ± 860 nM | – | COc1ccc(Cl)cc1C(=O)Nc1ccc(CN2CCN(C(=O)OC(C)(C)C)CC2)cc1 | – | – | 1.33 ± 0.06 | > 100 µM | –
490 ± 80 nM | – | – | O=C(Nc1ccc(CN2CCCCC2)cc1)c1ccc(Cl)c(OCc2ccc(F)cc2)c1 [Entry 12] | 28.6 ± 1.1 µM | 10.1 ± 0.8 | – | – | –
– | 35 ± 4.2 nM | – | COc1ccc(-c2cc(C(=O)Nc3cccc(Cl)c3)no2)cc1O | – | – | 7.18 ± 0.87 | > 100 µM | –
403 ± 31 nM | – | – | O=C(Nc1ccc(CN2CCOCC2)cc1)c1ccc(Cl)c(OCc2ccccc2)c1 [Entry 4] | > 100 µM | 8.81 ± 0.39 | – | – | –
1240 ± 390 nM | – | – | O=C(Nc1ccc(CN2CCCCC2)cc1)c1ccc(Cl)c(OCc2ccc(Cl)cc2)c1 [Entry 10] | 24.7 ± 1.5 µM | 5.91 ± 0.38 | – | – | –
